Experimental data: patent US20050261288A1, “Tetracyclic lactam derivatives and uses thereof” (priority 2004, published 2005)
pIC50: −log10 of the molar value.

Target: T1, PARP (Mus musculus, UniProt P11103)
T1 construct: endogenous in cells; host or cells: RAW mouse macrophages
Experiment: PARP activation in cultured murine macrophages, whole-cell macrophage assay (peroxynitrite-induced)
Format: cell-based
Conditions: for pIC50: PARP activation in cultured murine macrophages
Protocol: Without being bound by theory, Applicants believe that Tetracyclic Lactam Derivatives that inhibit PARP are useful for treating or preventing a Condition.
In a typical procedure, RAW mouse macrophages are cultured in DMEM medium with high glucose and supplemented with 10% fetal bovine serum. Cells are used at 80% confluence in 12-well plates. Cells are pretreated with various concentrations (100 nM-1 μM) of a Tetracyclic Lactam Derivative for 10 min. Peroxynitrite, a prototypical oxidant which induces DNA single strand breakage, is used to induce PARP activation. In a typical assay, peroxynitrite is diluted in phosphate buffered saline (PBS) (pH 11.0) and added to the cells in a bolus of 50 μL. Cells are then incubated for 20 minutes. Peroxynitrite is decomposed by incubation for 30 min at pH 7.0, and used as a control. After the 20 minute incubation period, the cells are spun, the medium is aspirated and the cells are resuspended in 0.5 mL assay buffer (56 mM HEPES pH 7:5, 28 mM KCl, 28 mM NaCl, 2 mM MgCl2, 0.01% w/v digitonin and 0.125 μM NAD^+ and 0.5 μCi/ml ^3H-NAD^+). Following incubation in assay buffer, (10 min at 37° C.), PARP activity can be measured as follows: 200 μL ice cold 50% w/v TCA is added and the samples are incubated for 4 h at 4° C. Samples are then spun (10 min @ 10,000 g) and the resulting pellets are washed twice with ice cold 5% w/v TCA and solubilized overnight in 250 μL 2% w/v SDS/0.1 N NaOH at 37° C. The contents of the tubes are added to 6.5 mL ScintiSafe Plus scintillation liquid (Fisher Scientific) and radioactivity is determined using a liquid scintillation counter (Wallac, Gaithersburg, Md.).
Examples of the inhibitory effects of illustrative Tetracyclic Lactam Derivatives in the whole-cell macrophage assay are illustrated in Tables 3 and 4 below.

T1 sequence (P11103 whole entry): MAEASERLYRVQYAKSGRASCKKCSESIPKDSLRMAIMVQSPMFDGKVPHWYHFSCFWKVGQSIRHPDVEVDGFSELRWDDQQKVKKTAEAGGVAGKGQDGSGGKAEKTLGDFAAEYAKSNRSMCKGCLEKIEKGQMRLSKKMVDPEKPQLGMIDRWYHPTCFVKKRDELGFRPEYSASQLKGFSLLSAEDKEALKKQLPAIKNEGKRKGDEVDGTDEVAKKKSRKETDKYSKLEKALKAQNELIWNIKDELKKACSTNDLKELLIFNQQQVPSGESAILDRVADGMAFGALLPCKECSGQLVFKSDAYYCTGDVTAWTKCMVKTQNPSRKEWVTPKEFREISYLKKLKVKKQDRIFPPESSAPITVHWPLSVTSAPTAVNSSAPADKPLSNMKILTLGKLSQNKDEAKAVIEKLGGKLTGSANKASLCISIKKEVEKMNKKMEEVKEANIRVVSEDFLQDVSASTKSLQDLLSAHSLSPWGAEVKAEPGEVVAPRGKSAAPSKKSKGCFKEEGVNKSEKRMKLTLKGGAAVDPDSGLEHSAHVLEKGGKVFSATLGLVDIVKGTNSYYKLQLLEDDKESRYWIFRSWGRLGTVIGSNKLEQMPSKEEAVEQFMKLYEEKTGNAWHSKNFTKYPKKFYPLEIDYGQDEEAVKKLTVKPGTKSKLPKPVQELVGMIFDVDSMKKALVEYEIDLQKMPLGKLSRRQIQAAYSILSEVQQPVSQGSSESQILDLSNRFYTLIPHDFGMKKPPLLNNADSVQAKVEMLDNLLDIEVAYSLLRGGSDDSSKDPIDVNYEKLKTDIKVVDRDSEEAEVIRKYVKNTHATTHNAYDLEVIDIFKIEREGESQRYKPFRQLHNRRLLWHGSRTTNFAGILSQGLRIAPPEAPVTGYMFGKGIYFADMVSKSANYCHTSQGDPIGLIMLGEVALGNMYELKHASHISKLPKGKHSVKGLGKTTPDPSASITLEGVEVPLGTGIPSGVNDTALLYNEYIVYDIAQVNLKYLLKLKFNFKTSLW

SMILES	pIC50	inhibition at 0.1 µM (0.1 μM, RAW mouse macrophages, peroxynitrite-induced PARP activation)	inhibition at 0.3 µM (0.3 μM, RAW mouse macrophages, peroxynitrite-induced PARP activation)	inhibition at 1 µM (1 μM, RAW mouse macrophages, peroxynitrite-induced PARP activation)	inhibition at 3 µM (3 μM, RAW mouse macrophages, peroxynitrite-induced PARP activation)
CC(C)OC(=O)n1c2ccccc2c2[nH]c(=O)c3ccccc3c21 [Compound 108, ISO-PROPYL-5-OXO-5,6-DIHYDRO-INDOLO[3,2-C]ISOQUINOLINE-11-CARBOXYLATE]	4.00 to 5.00	–	–	–	–
CCCOC(=O)n1c2ccccc2c2[nH]c(=O)c3ccccc3c21 [Compound 107, N-PROPYL-5-OXO-5,6-DIHYDRO-INDOLO[3,2-C]ISOQUINOLINE-11-CARBOXYLATE]	4.00 to 5.00	–	–	–	–

The remaining lines, values ahead:

pIC50	inhibition at 0.1 µM (0.1 μM, RAW mouse macrophages, peroxynitrite-induced PARP activation)	inhibition at 0.3 µM (0.3 μM, RAW mouse macrophages, peroxynitrite-induced PARP activation)	inhibition at 1 µM (1 μM, RAW mouse macrophages, peroxynitrite-induced PARP activation)	inhibition at 3 µM (3 μM, RAW mouse macrophages, peroxynitrite-induced PARP activation)	SMILES
4.00 to 5.00	–	–	–	–	COC(=O)n1c2ccccc2c2[nH]c(=O)c3ccccc3c21 [Compound 61, METHYL-5-OXO-5,6-DIHYDRO-INDOLO[3,2-C]ISOQUINOLINE-11-CARBOXYLATE]
5.00 to 6.00	33%	43%	50%	65%	CCOC(=O)n1c2ccccc2c2[nH]c(=O)c3ccccc3c21 [Compound 63, ETHYL-5-OXO-5,6-DIRYDRO-INDOLO[3,2-C]ISOQUINOLINE-11-CARBOXYLATE]
4.00 to 5.00	–	–	–	–	CCCCOC(=O)n1c2ccccc2c2[nH]c(=O)c3ccccc3c21 [Compound 109, N-BUTYL-5-OXO-5,6-DIHYDRO-INDOLO[3,2-C]ISOQUINOLINE-11-CARBOXYLATE]
